Experimental data as given in patent US20240108747A1, “EXTRACELLULAR VESICLE CONJUGATES AND USES THEREOF” (LONZA SALES AG, priority 2019, published 2024).
Starred links: 1 amine or outer side, 2 acyl side, 3 side chain; linkers in the order of their positions; H or OH if unused. Non-standard residues stand in square brackets, D forms with d. Residues, ends and D or L forms follow the SMILES beside them. *: point of attachment. Dolaproine = CO[C@@H]([C@@H]1CCCN1)[C@@H](C)C(=O)O; Hexanoyl(6-maleimido) = O=C1C=CC(=O)N1CCCCCC(=O)*; Dil = CC[C@H](C)[C@H](NC)[C@@H](CC(=O)O)OC; PABC = O=C(OCc1ccc(N[*:1])cc1)[*:2]; X1 = C[C@@H](N*)[C@@H](O)c1ccccc1; Cit = NC(=O)NCCC[C@H](N)C(=O)O; NMeV = CN[C@H](C(=O)O)C(C)C

Tests used:
RAW264.7 (RAW) cells = test: MMAE cytotoxicity / cell growth on RAW264.7 cells (IncuCyte); format: cell-based, mouse
Procedure: The dose-response effects of MMAE on RAW cell growth are shown in microphotographs (top), and measurements of cells growth (bottom left), and confluence (bottom right).
MMAE cytotoxicity was assessed on RAW264.7 (RAW) cells. RAW cells are a […] macrophage cell line. 10,000 RAW cells were seeded in each well of a 96 well plate, and cell growth was monitored using an IncuCyte instrument to image cells over a period of approximately 5 days. […] Images show cells after 5 days of treatment with the indicated dose of MMAE or DMSO; growth inhibition is evident from the decreased number of cells after treatment with MMAE, while cell death is indicated by the rounding up of cells (evident in the 10, 100, and 300 nM images). MMAE has a steep dose-response curve.

NLRP1 inflammasome = conditions: cited from earlier work
AIM2 inflammasome = conditions: cited from earlier work
NLRP3 = NLRP3 (Sus scrofa, UniProt H2EW08); conditions: models for myocardial infarction; cited from earlier work
NLRC4 inflammasome = conditions: cited from earlier work
TLR2 signaling = conditions: cited from earlier work
mouse LPA-1/CHO cells = conditions: read-out: IC50, inhibition of LPA-1-induced chemotaxis; cited from earlier work
[1] = cited from earlier work
[2] = test system: LPA-induced histamine release; conditions: mice; cited from earlier work
mouse LPA-1 = mouse LPA-1 (Mus musculus, UniProt P61793); conditions: cited from earlier work
recombinant human LPA-1 = recombinant human LPA-1 (Homo sapiens, UniProt Q92633); conditions: cited from earlier work
[3] = test system: human A2058 melanoma cells; conditions: read-out: IC50, inhibition of LPA-1-induced chemotaxis; cited from earlier work
[4] = Phase 2 study (Palmer 2018); cited from earlier work

Chain of recombinant human LPA-1 (Q92633 whole entry): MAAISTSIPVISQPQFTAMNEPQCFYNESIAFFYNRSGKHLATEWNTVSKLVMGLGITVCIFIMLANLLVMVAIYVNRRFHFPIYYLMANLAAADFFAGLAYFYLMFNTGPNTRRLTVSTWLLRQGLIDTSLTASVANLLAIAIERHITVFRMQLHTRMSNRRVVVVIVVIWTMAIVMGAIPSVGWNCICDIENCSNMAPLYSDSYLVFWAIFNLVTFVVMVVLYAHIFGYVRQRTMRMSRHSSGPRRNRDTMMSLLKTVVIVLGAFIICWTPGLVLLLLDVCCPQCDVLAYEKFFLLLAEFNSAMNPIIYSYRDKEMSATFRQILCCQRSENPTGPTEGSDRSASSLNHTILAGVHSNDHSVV
Chain of NLRP3 (H2EW08 1-1036): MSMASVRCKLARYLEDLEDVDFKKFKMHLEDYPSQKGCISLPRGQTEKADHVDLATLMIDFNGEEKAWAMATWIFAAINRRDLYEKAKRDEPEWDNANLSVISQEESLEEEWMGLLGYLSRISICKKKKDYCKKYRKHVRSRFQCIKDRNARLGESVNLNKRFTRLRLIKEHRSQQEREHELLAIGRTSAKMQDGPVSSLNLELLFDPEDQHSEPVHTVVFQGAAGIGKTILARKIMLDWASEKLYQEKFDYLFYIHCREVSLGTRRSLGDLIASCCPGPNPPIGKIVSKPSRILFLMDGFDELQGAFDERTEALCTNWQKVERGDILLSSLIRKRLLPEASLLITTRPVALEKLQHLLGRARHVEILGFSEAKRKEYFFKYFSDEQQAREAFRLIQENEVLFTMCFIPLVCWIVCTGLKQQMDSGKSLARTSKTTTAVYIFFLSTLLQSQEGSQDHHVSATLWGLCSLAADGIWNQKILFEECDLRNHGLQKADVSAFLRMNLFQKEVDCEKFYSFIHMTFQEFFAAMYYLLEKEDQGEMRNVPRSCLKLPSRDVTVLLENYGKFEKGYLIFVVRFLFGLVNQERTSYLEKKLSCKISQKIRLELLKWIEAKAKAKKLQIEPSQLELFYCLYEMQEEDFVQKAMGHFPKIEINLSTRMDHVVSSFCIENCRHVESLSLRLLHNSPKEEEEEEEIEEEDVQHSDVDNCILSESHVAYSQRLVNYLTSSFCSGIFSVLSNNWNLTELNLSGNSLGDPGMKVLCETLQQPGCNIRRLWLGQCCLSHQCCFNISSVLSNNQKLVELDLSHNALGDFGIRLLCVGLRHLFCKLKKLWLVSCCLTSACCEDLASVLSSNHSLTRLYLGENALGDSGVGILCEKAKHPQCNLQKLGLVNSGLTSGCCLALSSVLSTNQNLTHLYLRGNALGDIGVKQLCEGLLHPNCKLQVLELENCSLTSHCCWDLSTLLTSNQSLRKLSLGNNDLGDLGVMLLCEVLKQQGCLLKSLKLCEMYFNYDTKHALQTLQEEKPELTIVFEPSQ
Chain of mouse LPA-1 (P61793 whole entry): as the sequence (Q92633 whole entry) above, with I4A, I8S, P22Q, H40Y, I61V, E193D, N194H, I269V, S331N, T335N counted along it

CC[C@H](C)[C@@H]([C@@H](CC(=O)N1CCC[C@H]1[C@H](OC)[C@@H](C)C(=O)N[C@H](C)[C@@H](O)c1ccccc1)OC)N(C)C(=O)[C@@H](NC(=O)[C@H](C(C)C)N(C)C(=O)OCc1ccc(NC(=O)[C@H](CCCNC(N)=O)NC(=O)[C@@H](NC(=O)CCCCCN2C(=O)C=CC2=O)C(C)C)cc1)C(C)C [vc-MMAE, maleimide-vc-PABC-MMAE] ({Hexanoyl(6-maleimido)}-V[Cit][PABC][NMeV]V[Dil][Dolaproine]-X1)
fold less toxic than unmodified MMAE (RAW264.7 (RAW) cells; administered to cells as a free drug, FIG. 8A): approximately 100 fold

CC[C@H](C)[C@@H]([C@@H](CC(=O)N1CCC[C@H]1[C@H](OC)[C@@H](C)C(=O)N[C@H](C)[C@@H](O)c1ccccc1)OC)N(C)C(=O)[C@@H](NC(=O)[C@@H](NC)C(C)C)C(C)C [MMAE, monomethyl auristatin E] (H-[NMeV]V[Dil][Dolaproine]-X1)
MMAE concentrations giving potent growth inhibition and cell death (RAW264.7 (RAW) cells; free drug, about 5 days, FIG. 7): above 1.1 nM

CC(C)(O)c1coc(S(=O)(=O)NC(=O)Nc2c3c(cc4c2CCC4)CCC3)c1 [MCC950, N-[[(1,2,3,5,6,7-hexahydro-s-indacen-4-yl)amino]carbonyl]-4-(1-hydroxy-1-methylethyl)-2-furansulfonamide]
inhibition of NLRP1 inflammasome (NLRP1 inflammasome): does not inhibit | inhibition of AIM2 inflammasome (AIM2 inflammasome): does not inhibit | NLRP3-induced IL-1β production (NLRP3): inhibits NLRP3-induced IL-1β production | inhibition of NLRC4 inflammasome (NLRC4 inflammasome): does not inhibit | inhibition of TLR2 signaling (TLR2 signaling): does not inhibit

Cc1noc(-c2ccc(-c3ccc(CC(=O)O)cc3)cc2)c1NC(=O)O[C@H](C)c1ccccc1 [AM095, 1,1′-Biphenyl]-4-acetic acid, 4′-[3-methyl-4-[[[(1R)-1-phenylethoxy]carbonyl]amino]-S-isoxazolyl[ ]-]
IC50 (mouse LPA-1/CHO cells): 780 nM | ED50, reduction of BALF collagen and protein ([1]; in lungs): 10 mg/kg | macrophage and lymphocyte infiltration induced by bleomycin ([1]; mice): decrease both macrophage and lymphocyte infiltration | ED50, block of LPA-induced histamine release [2]: 8.3 mg/kg | IC50 (mouse LPA-1): 730 nM | IC50 (recombinant human LPA-1): 980 nM | IC50 [3]: 230 nM

Cc1noc(-c2ccc(-c3ccc(C4(C(=O)O)CC4)cc3)cc2)c1NC(=O)O[C@H](C)c1ccccc1 [AM152, Cyclopropanecarboxylic acid, 1-[4′-[3-methyl-4-[[[(1R)-1-phenylethoxy]carbonyl]amino]-S-isoxazolyl][1,1′-biphenyl]-4-yl]-]
toxicity leading to early termination of the study [4]: gall bladder toxicity and early signs of liver toxicity
